According to the NIST ThermoML archive (doi:10.1016/j.jct.2009.05.019):
± gives the expanded uncertainty stated by the source.

Experiment: molar enthalpy of vaporization or sublimation
Conditions: 298.15 K; Crystal; Calvet microcalorimetry

`c1ccc2c(c1)sc1ccccc12` [dibenzothiophene] gave a molar enthalpy of 93.2 ± 1 kJ/mol.
